Reference: patent US4102886A, “Process for the preparation of benzo(a)quinolizidine derivatives” (priority 1974, dated 1978)

Columns and labels:
[1] = test system: experimentally provoked fever; assay: Antipyretic activity (experimentally provoked fever); type: in vivo; set-up: unit not given here; conditions: 25 mg./kg. p.o.
From the text: Besides their antiphlogistic activities, some of the benzo(a)quinolizidine derivatives exert antipyretic effects as well. On the basis of the tests performed on experimentally provoked fever, the antipyretic activities of the compounds according to the invention surpass the effect of amidazophenum.

[2] = Acute toxicity tests; type: in vivo; conditions: rat, in vivo, po; rats, Litchfield-Wildoxon method
Description: The acute toxicity values of the compounds were determined on rats, after oral administration. The LD50 values were calculated according to the Litchfield-Wildoxon method.

[3] = test system: central nervious system; assay: Narcosis potentiating effect; type: in vivo
[4] = test system: kaolin-induced oedema; assay: Inhibition of kaolin-induced oedema; type: in vivo; conditions: 2 hours
Description: (§1) Inhibition of Kaolin- and carrageenin-induced oedema
(§2) The tests were carried out on groups each consisting of at least 10 animals. The percentage inhibition of oedema, in relation to the untreated controls, was determined for each of the animals, and the average values were calculated.

[5] = test system: carrageenin-induced oedema; assay: Inhibition of carrageenin-induced oedema; type: in vivo; conditions: 1.5 hours
Description: as §1, §2

[6] = test system: Cotton granuloma; assay: Cotton granuloma test; type: in vivo; conditions: 100 mg./kg.
[7] = Determination of ulcer index
[8] = Inhibition of kaolin-induced oedema; type: in vivo; conditions: in vivo; LD50/ED50; read-out: Therapeutical index LD50/ED50, kaolin-oedema
Description: as §1, §2

[9] = Inhibition of carrageenin-induced oedema; type: in vivo; conditions: in vivo; LD50/ED50; read-out: Therapeutical index LD50/ED50, carrageenin-oedema
Description: as §1, §2

[10] = test system: serotonine-induced oedema; assay: Tests performed on serotonine-induced oedema; type: in vivo
Description: Tests performed on serotonine-induced oedema
The tests were carried out on groups each consisting of 10 animals. The percentage inhibition of oedema, in relation to the untreated controls, was determined for each of the animals. The data listed in Table 3 are the averages of the inhibition values.

[11] = Analgesic effect by the hot-plate test; type: in vivo; conditions: 50 mg./kg. p.o.

| SMILES | LD50 [2] [mg/kg] | Inhibition of kaolin-induced oedema 2 hours after administration ([4]; 100 mg./kg. p.o.) [%] | Inhibition of carrageenin-induced oedema 1.5 hours after administration ([5]; 100 mg./kg. p.o.) [%] | Erosion ([7]; female) | Ulcer ([7]; female) | Erosion ([7]; male) | Ulcer ([7]; male) | Inhibition of kaolin-induced oedema 2 hours after administration ([4]; 25 mg./kg. p.o.) [%] | Inhibition of kaolin-induced oedema 2 hours after administration ([4]; 50 mg./kg. p.o.) [%] | Inhibition of kaolin-induced oedema 2 hours after administration ([4]; 75 mg./kg. p.o.) [%] | Inhibition of carrageenin-induced oedema 1.5 hours after administration ([5]; 50 mg./kg. p.o.) [%] | Percentage inhibition 1 hour after administration (serotonine-induced oedema) ([10]; 100 mg./kg. p.o.) [%] | Prolongation of the sleep period in relation to the untreated controls, % ([3]; 50 mg./kg. p.o.) [%] | other results |
| --- | --- | --- | --- | --- | --- | --- | --- | --- | --- | --- | --- | --- | --- | --- |
| Cc1c(N(C)C)c(=O)n(-c2ccccc2)n1C [Amidazophenum] | – | – | – | – | – | – | – | – | – | – | – | – | – | Variation of body temperature ([1]; 1 hour after administration): -1.17; Variation of body temperature ([1]; 2 hours after administration): -0.94; Variation of body temperature ([1]; 3 hours after administration): -0.95 |
| CC(=O)Oc1ccccc1C(=O)O [Aspirin, reference compound] | 1700 | – | – | – | – | – | – | – | – | – | – | – | – | – |
| CCCC(C)(COC(N)=O)COC(N)=O [Meprobamate, reference compound] | – | – | – | – | – | – | – | – | – | – | – | – | – | Prolongation of the sleep period in relation to the untreated controls, % ([3]; 20 mg./kg. p.o.): 110.2% |
| O=C(O)c1ccccc1O [Na-salicylate, reference compound] | – | 10.5 | 16.2 | 3/10 | 2/10 | 1/10 | 4/10 | – | – | – | – | – | – | Effect, % (cotton granuloma test) [6]: 25.5% |
| COc1cc2c(cc1OC)C1CC(=O)C(CCC#N)CN1CC2 (stereo not drawn) [SCT-1, 2-Oxo-3-(β-cyano-ethyl)-9,10-dimethoxy-1,2,3,4,6,7-hexahydro-11bH-benzo(a)quinolizidine] | 620 | 47.8 | 37.7 | 4/10 | 2/10 | 3/10 | 1/10 | 20.5 | 21.4 | 24.8 | 24.2 | 57.8 | 207.6 | selectivity ratio [8]: 12.4; selectivity ratio [9]: 6.7; Inhibition of carrageenin-induced oedema 1.5 hours after administration ([5]; 75 mg./kg. p.o.): 25.7%; Percentage inhibition 1 hour after administration (serotonine-induced oedema) ([10]; 50 mg./kg. p.o.): 22.4%; Prolongation of the sleep period in relation to the untreated controls, % ([3]; 25 mg./kg. p.o.): 132.8% |
| COC(=O)CCC1CN2CCc3cc(OC)c(OC)cc3C2CC1=O (stereo not drawn) [SCT-2, 2-Oxo-3-(β-methoxycarbonyl-ethyl)-9,10-dimethoxy-1,2,3,4,6,7-hexahydro-11bH-benzo(a)quinolizidine] | – | – | 17.0 | – | – | – | – | 5.8 | 21.4 | 24.7 | 14.3 | 16.0 | 28.3 | Inhibition of carrageenin-induced oedema 1.5 hours after administration ([5]; 75 mg./kg. p.o.): 2.8%; Prolongation of the reaction time, % (2 hours after administration) [11]: 26.4% |
| CCOc1cc2c(cc1OCC)C1CC(=O)C(CCC#N)CN1CC2 (stereo not drawn) [SCT-3, 2-Oxo-3-(β-cyano-ethyl)-9,10-diethoxy-1,2,3,4,6,7-hexahydro-11bH-benzo(a)quinolizidine] | 780 | 45.9 | 53.7 | 4/10 | 0/10 | 6/10 | 1/10 | 17.3 | 19.4 | 48.9 | 41.5 | 47.0 | 240.2 | selectivity ratio [8]: 15; selectivity ratio [9]: 19.8; Inhibition of carrageenin-induced oedema 1.5 hours after administration ([5]; 25 mg./kg. p.o.): 25.1%; Percentage inhibition 1 hour after administration (serotonine-induced oedema) ([10]; 50 mg./kg. p.o.): 36.2%; Prolongation of the reaction time, % (2 hours after administration) [11]: 33.9%; Prolongation of the sleep period in relation to the untreated controls, % ([3]; 25 mg./kg. p.o.): 131.7% |
